Experimental data reported in publication PMC9605737, “Identification of 6ω-cyclohexyl-2-(phenylamino carbonylmethylthio)pyrimidin-4(3H)-ones targeting the ZIKV NS5 RNA dependent RNA polymerase” (Frontiers in Chemistry, 2022).
Read-outs that look alike come from different tables or passages of the source.

How the values were obtained:
ZIKV = test: Plaque assay, anti-ZIKV activity in Vero cells; format: cell-based, Zika virus; details: for EC50: read-out: EC50 (anti-ZIKV activity, plaque formation)
Experimental: Initially, the novel acetylarylamine-S-DACOs 4a-z were tested for their cytotoxicity and anti-ZIKV activity in Vero cells by plaque formation according to previously detailed procedure ([Xu et al., 2017]).
Vero cells were inoculated in a 12-well plate at 3 × 10^5 cells/ml and cultured overnight, the medium was discarded and cells were washed with PBS, then the ZIKV (MOI = 0.5) was added to infect at 37°C for 2 h. The cells were washed with PBS, and then a mixture of DMEM supplemented with 4% FBS and 2% low-melting agarose (Amresco, United States) was overlaid on the cells. Next, the cells were fixed with 4% paraformaldehyde for 15 min at 5d post-infection (hpi), washed twice with PBS and stained with 0.8% crystal violet for 10 min. Finally, an enzyme-linked fluorescence spot spectrometer (CTL, United States) was used for image acquisition.

[1] = MTT cytotoxicity assay in Vero cells; format: cell-based, African green monkey; details: African green monkey, triplicate, >200 = highest soluble concentration not reaching 50% cytotoxicity
Experimental: (§1) MTT assay was used to detect the toxicity of the compound. Cells were seeded in 96-well plates and cultured overnight. Compounds with different concentrations were added and incubated for 96 h. Then, 20 μl of 5 mg/ml MTT (Sigma-Aldrich, United States) solution was added to each well and kept at 37°C for 4 h. Subsequently, 100 μl of 12% SDS-50% DMF (Sigma-Aldrich, United States) solution was added and incubated overnight at 37°C. After the crystalline formamidine was completely dissolved, the optical density (OD) value was measured using a microplate reader (BioTek, United States) with a wavelength of 570 nm and a reference wavelength of 630 nm.
(§2) The 50% effective concentration (EC50) and 50% cytotoxic concentration (CC50) of the compound were calculated according to the Reed and Muench method, inhibition rate of ZIKV RNA yield- [(1-drug treatment/positive control) × 100]. The data and graphs were processed using GraphPad Prism8 software, expressed as mean ± standard deviation (Mean ± SD), comparison between groups using ANOVA, p < 0.05 was considered statistically significant.

Vero cells = test: MTT cytotoxicity assay in Vero cells; format: cell-based, African green monkey; details: 96 h, triplicate, >200 = highest soluble concentration not reaching 50% cytotoxicity
Experimental: as §1, §2

HCV = system: HCV; parameters: method as in Wu et al. (2017); details: Figure 3; ref Wu et al. (2017); read-out: EC50 (anti-HCV); cited from earlier work
[2] = Figure 3; ref Wu et al. (2017); cited from earlier work
ZIKV RdRp = target: T1, ZIKV RdRp (Zika virus, UniProt A0A024B7W1); parameters: method as in Sáez-Álvarez et al., 2019; details: positive control drug; ref Sáez-Álvarez et al., 2019; cited from earlier work
T1 construct: we expressed and purified ZIKV RdRp domain; made in house; host or cells: Escherichia coli BL21 (DE3)

[3] = Zika virus, plaque assay, independently in triplicate
[4] = plaque assay, independently in triplicate

T1 sequence (A0A024B7W1 2793-3423): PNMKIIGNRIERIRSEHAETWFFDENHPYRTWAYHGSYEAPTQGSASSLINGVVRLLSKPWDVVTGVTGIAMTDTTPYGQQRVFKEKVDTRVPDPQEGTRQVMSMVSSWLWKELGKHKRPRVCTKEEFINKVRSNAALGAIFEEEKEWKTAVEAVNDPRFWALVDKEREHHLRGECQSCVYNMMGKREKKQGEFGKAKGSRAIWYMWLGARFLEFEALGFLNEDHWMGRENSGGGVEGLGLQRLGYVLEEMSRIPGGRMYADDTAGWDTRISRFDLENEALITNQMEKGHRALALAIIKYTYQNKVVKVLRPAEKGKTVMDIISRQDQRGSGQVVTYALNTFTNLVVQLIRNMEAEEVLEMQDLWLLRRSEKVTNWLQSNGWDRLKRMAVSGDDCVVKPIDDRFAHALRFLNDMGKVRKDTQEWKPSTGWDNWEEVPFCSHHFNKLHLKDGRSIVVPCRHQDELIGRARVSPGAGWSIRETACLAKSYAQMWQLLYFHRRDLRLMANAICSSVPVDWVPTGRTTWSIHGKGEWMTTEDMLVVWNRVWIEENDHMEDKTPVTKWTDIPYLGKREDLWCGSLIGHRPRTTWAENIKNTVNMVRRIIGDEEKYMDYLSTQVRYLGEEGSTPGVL

EC50 (ZIKV; [3])	melting point	Compound	CC50 at 96 h [1]	further results
> 50 µM		CCc1c(C2CCCCC2)nc(SCC(=O)Nc2ccccc2OC)[nH]c1=O [Compound 4a, 2-[(4-cyclohexyl-5-ethyl-6-oxo-1,6-dihydropyrimidin-2-yl)thio]-N-(2-methoxyphenyl)acetamide]	> 200 µM	
> 50 µM	207 to 209 °C	CCc1c(C2CCCCC2)nc(SCC(=O)Nc2cccc(OC)c2)[nH]c1=O [Compound 4c, 2-[(4-cyclohexyl-5-ethyl-6-oxo-1,6-dihydropyrimidin-2-yl)thio]-N-(3-methoxyphenyl)acetamide]	109 ± 3.19 µM	
19.4 ± 0.38 µM	184 to 187 °C	CCc1c(C2CCCCC2)nc(SCC(=O)Nc2cccc(F)c2)[nH]c1=O [Compound 4i, 2-[(4-cyclohexyl-5-ethyl-6-oxo-1,6-dihydropyrimidin-2-yl)thio]-N-(3-fluorophenyl)acetamide]	> 200 µM	SI (selectivity index, CC50/EC50 ratio) (ZIKV): >10.33
> 50 µM	190 to 192 °C	CCc1c(C2CCCCC2)nc(SCC(=O)Nc2cc(F)ccc2F)[nH]c1=O [Compound 4u, 2-[(4-cyclohexyl-5-ethyl-6-oxo-1,6-dihydropyrimidin-2-yl)thio]-N-(2,5-difluorophenyl)acetamide]	> 200 µM	

Continued, compound first:

Compound	EC50 (ZIKV; [3])	melting point	CC50 at 96 h [1]	further results
CCc1c(C2CCCCC2)nc(SCC(=O)Nc2ccc(OC)cc2)[nH]c1=O [Compound 4e, 2-[(4-cyclohexyl-5-ethyl-6-oxo-1,6-dihydropyrimidin-2-yl)thio]-N-(4-methoxyphenyl)acetamide]	> 50 µM		> 200 µM	
CCc1c(C2CCCCC2)nc(SCC(=O)Nc2ccccc2F)[nH]c1=O [Compound 4g, 2-[(4-cyclohexyl-5-ethyl-6-oxo-1,6-dihydropyrimidin-2-yl)thio]-N-(2-fluorophenyl)acetamide]	16.3 ± 1.31 µM	206 to 208 °C	> 200 µM	SI (selectivity index, CC50/EC50 ratio) (ZIKV): >12.27
CCc1c(C2CCCCC2)nc(SCC(=O)Nc2ccc(F)cc2)[nH]c1=O [Compound 4k, 2-[(4-cyclohexyl-5-ethyl-6-oxo-1,6-dihydropyrimidin-2-yl)thio]-N-(4-fluorophenyl)acetamide]	> 50 µM	273 to 274 °C	> 200 µM	
CCc1c(C2CCCCC2)nc(SCC(=O)Nc2ccc(F)cc2F)[nH]c1=O [Compound 4s, 2-[(4-cyclohexyl-5-ethyl-6-oxo-1,6-dihydropyrimidin-2-yl)thio]-N-(2,4-difluorophenyl)acetamide]	> 50 µM	227 to 229 °C	> 200 µM	
CCc1c(CC2CCCCC2)nc(SCC(=O)Nc2cc(F)ccc2OC)[nH]c1=O [Compound 4z, 2-{[4-(cyclohexylmethyl)-5-ethyl-6-oxo-1,6-dihydropyrimidin-2-yl]thio}-N-(5-fluoro-2-methoxyphenyl)acetamide]		182 to 183 °C		EC50 (anti-ZIKV activity, plaque formation) (ZIKV; [4]): did not show activity; EC50 (ZIKV; [4]): > 50 µM; CC50 (Vero cells): > 200 µM
NC(=O)c1ncn([C@@H]2O[C@H](CO)[C@@H](O)[C@H]2O)n1 [Ribavirin, reference compound]	48.9 ± 3.42 µM		> 200 µM	SI (selectivity index, CC50/EC50 ratio) (ZIKV): >4.09
CCc1c(CC2CCCCC2)nc(SCC(=O)C(O)c2ccc(F)cc2)[nH]c1=O (stereo not shown) [compound B, reference compound]				EC50 (HCV): 2.02 µM; CC50 [2]: 196 µM
Heparin				inhibition of ZIKV RdRp activity (ZIKV RdRp): significantly inhibited
